Measurements published in patent EP1366052B1 (priority 2001, dated 2002).
“Also recorded” adds a separate entry of the source.

Experiments:
Sprague-Dawley rats = details: rat, in vivo
male Sprague-Dawley rats = details: rat, in vivo
weanling pigs = details: pig, in vivo

| Compound | induction of fed pattern of gut motility (Sprague-Dawley rats) | food consumption (male Sprague-Dawley rats) | food consumption and weight gain (male Sprague-Dawley rats) | weight gain (male Sprague-Dawley rats) | emesis (weanling pigs) | food consumption in the AM meal following the AM treat (weanling pigs) | persistence of the effect on food consumption (weanling pigs) | delay before effect on the fasting pattern (Sprague-Dawley rats) | effect on fasting pattern of gut motility (Sprague-Dawley rats) | duration of action (Sprague-Dawley rats) | onset time after administration (Sprague-Dawley rats) |
| --- | --- | --- | --- | --- | --- | --- | --- | --- | --- | --- | --- |
| CC1=C[C@H]2O[C@@H]3[C@H](O)C[C@](C)([C@@]2(CO)[C@H](O)C1=O)[C@]31CO1 [DON, 3α,7α,15-trihydroxy-12,13-epoxy-trichothec-9-en-8-one] | induced the fed pattern | decrease | immediate and sustained reduction; also recorded: concentration-dependant reduction | decrease | some emesis | decreased food consumption | wore off by the next meal |  |  |  |  |
| C[C@@H]1C[C@H]2O[C@@H]3[C@H](O)C[C@](C)([C@]24COC(c2ccccc2)O[C@@H]4[C@@H]1O)[C@@]3(C)O (stereo partly drawn) [EN139502, 7α,15-benzylidene-9α,12β-dimethyltrichothecan-3α,8α,12α-triol] | did not induce the fed pattern |  |  |  |  |  |  | approximately 5 min | intensify or enhance the fasting pattern |  |  |
| C[C@@H]1C[C@H]2O[C@@H]3[C@H](O)C[C@](C)([C@]24COC(c2ccccc2)O[C@@H]4C1=O)[C@@]3(C)O (stereo partly drawn) [EN139522, 7α,15-benzylidene-9α,12β-dimethyl-3α,12α-dihydroxytrichothecan-8-one] | induce a classic fed pattern |  |  |  |  |  |  |  |  | 35 min | 20 s |
